In brackets after ≈: the same amount, converted by molar mass. Several values for one entry are separate records, joined by “and”; a condition that tells them apart may be missing. Identical values can stand only once. Like-named read-outs stand apart in the source and are kept apart here. Marks after values point to notes of the source that are not given here.
Columns and labels:
[1] = test system: A. castellanii trophozoites; experiment: Cytotoxicity assay on trophozoites (resazurin / alamarBlue); format: cell-based, Acanthamoeba castellanii ATCC 50370; settings: for IC50: Acanthamoeba castellanii
Description: (§1) Acanthamoeba castellanii ATCC 50370 trophozoites and cysts were cultured in Peptone Glucose (PG) medium and encystment medium (Chagla A H, Griffiths A J (1974) Microbiology: 85(1): 139-145) respectively at 25° C. Cysts were prepared by incubating trophozoites for 8 days in encystment medium and integrity validated with calcofluor (0.25 μg/ml) assay (Gatti S et al (2010) J. Med. Microbiol.; 59: 1324-1330) or sodium dodecyl sulfate (SDS, 0.5% w/v) disintegration assay (Dudley R et al (2005) Acta Trop.; 9: 100-8) and microscopic observation.
The compounds used in this study all contained alkyl-carbon chains: three APCs [dodecyl-PC (APC12), tetradecyl-PC. (APC14) and hexadecyl-PC (APC16)] (Anatrace) and four QACs [docdecyl-TMAB (QAC12), tetradecyl-TMAB (QAC14), hexadecyl-TMAB (QAC16) and octadecyl-TMAB (QAC18)](Sigma). All were prepared to a stock concentration of 1 mg/ml and diluted as required by the experimental protocol in the cytotoxicity assays. […]
[…] Resazurin (7-Hydroxy-31-phenoxazin-3-one 10-oxide; 5 mg/ml; McBride J et al (2005) J. Clin. Microbiol.; 43: 629-634) and trypan blue (0.4 μg/ml; Mafra C S P et al (2013) Investig. Ophthalmol. Vis. Si.; 54: 6363-6372) were then added to trophozoites and cysts respectively after being exposed to the compounds and the cell viability estimated microscopically and from changes in absorbance (at 595 nm and 570 nm) respectively.
(§2) Efficacy was expressed as a percentage of untreated controls for each drug concentration used and the data used to calculate the IC50. Cell density was estimated using the modified Neubaur hemocytometer and expressed as cells/ml.

[2] = cited from earlier work; for CMC value: APCs
[3] = test system: A. castellanii trophozoites; experiment: Drug wash-out / alamarBlue-reversion assay, trophozoites; format: cell-based, Acanthamoeba castellanii ATCC 50370
[4] = test system: A. castellanii trophozoites; experiment: Morphometric analysis of trophozoites; format: cell-based, Acanthamoeba castellanii ATCC 50370
Description: Acanthamoeba trophozoites ([…]) incubated without (FIG. 2A), with QAC18 at 37.5 μg/ml for 1 h at 25° C. (FIG. 2B), and 0.5% SDS for 30 min (FIG. 2C). QAC18 reduced trophozoites sizes from 29.02±0.23 (FIG. 2A) to 7.87 f 0.93 (FIG. 2B) which disintegrated after 30 min treatment with SDS (FIG. 2C).
A. castellanii trophozoites incubated with and without QAC for a duration determined by experimental protocol were examined microscopically and their sizes measured using the Open Laboratory (Improvision) calibration graticule. The mean body sizes were determined.

[5] = test system: A. castellanii trophozoites; experiment: Combined assay with fixed QAC12 (alamarBlue); format: cell-based, Acanthamoeba castellanii ATCC 50370; settings: for IC50: Acanthamoeba castellanii, 96 h, 96 h at 25° C.
Description: Acanthamoeba trophozoites (10^5 cells/ml. n=5/treatment) treated with 100 μg/ml doubly diluted to 0.06 μg/ml of QAC18 (a,b) or APC16 (c,d) for 96 h at 25° C. […] Similarly. APC16 alone at the same concentration (closed circle, FIG. 6C, FIG. 6D) in combination with QAC12 at 18.75 μg/ml (open squares, d) QAC12 at […] (open squares, FIG. 6C). Data are mean absorbance at 595 nm t SD; n=4 independent experiments performed in triplicates. IC50s were not statistically significant between QAC12 at both concentrations and QAC16 (p>0.05, FIG. 6A, FIG. 6B) but significant with APC16 (p<0.05, FIG. 6C, FIG. 6D).
(§3) For the combined assay, similar concentrations of QAC18 and APC16 were prepared and 18.75 μg/ml and 37.5 μg/ml of QAC12 added (to a final volume of 100 μl) were added to 10^5 cells/mi in a 96-well plate and later incubated at 25° C. for a duration determined by the experimental protocol. Resazurin (7-Hydroxy-31-phenoxazin-3-one 10-oxide; 5 mg/ml; McBride J et al (2005) J. Clin. Microbiol.; 43: 629-634) and trypan blue (0.4 μg/ml; Mafra C S P et al (2013) Investig. Ophthalmol. Vis. Si.; 54: 6363-6372) were then added to trophozoites and cysts respectively after being exposed to the compounds and the cell viability estimated microscopically and from changes in absorbance (at 595 nm and 570 nm) respectively.

[6] = test system: A. castellanii cysts; experiment: Cytotoxicity assay on cysts (trypan blue); format: cell-based, Acanthamoeba castellanii ATCC 50370; settings: Acanthamoeba castellanii
Description: as §1
The compounds used in this study all contained alkyl-carbon chains: three APCs [dodecyl-PC (APC12), tetradecyl-PC. (APC14) and hexadecyl-PC (APC16)] (Anatrace) and four QACs [docdecyl-TMAB (QAC12), tetradecyl-TMAB (QAC14), hexadecyl-TMAB (QAC16) and octadecyl-TMAB (QAC18)](Sigma). All were prepared to a stock concentration of 1 mg/ml and diluted as required by the experimental protocol in the cytotoxicity assays. A. castellanii trophozoites and cysts (at 10^5 cells/ml) with or without APCs or QACs (concentrations ranging from […] doubly diluted to 0.04 μg/ml to a final volume of 100 μl) in a 96-well plate were incubated at 25° C. for a duration determined by the experimental protocol.
as §3, §2

[7] = test system: A. castellanii cysts; experiment: Drug wash-out / alamarBlue-reversion assay, cysts; format: cell-based, Acanthamoeba castellanii ATCC 50370; settings: Cysts; further: key: +: indicates cells reverting back to trophozoites after washout; and capable of oxidizing reduced alamarBlue from blue to pink after 8 days; −: indicates cell that did not revert to trophozoites after wash-out and unable to oxidise reduced alamarBlue solution
Description: For the drug kinetic assay, viability was assessed by the linked alamarBlue-reversion assay. Drug-treated cysts were washed with PBS and fresh PG medium was added to allow reversion to trophozoites for 5 days, after which, alamar blue was added and viability estimated as described above.
The cysticidal activity of QAC16 to QAC18 strongly correlated with (a) the alkyl-carbon chain lengths (Table 2) and the duration of drug contact (FIG. 8H). Like trophozoites, death was via leakage judged by 40% and 50% increase in DNA and proteins in the external milieu after 1 h (FIGS. 9A and 9B). To investigate if the cyst were viable, a complementary viability assay that involved, drug washout, incubation in PG medium to allow reversion of viable cyst to trophozoite for 7 days, and estimation of viability using the oxidation of resazurin after 6 h.

[8] = test system: Acanthamoeba trophozoites; experiment: Checkerboard dilution QAC-APC interaction (Bliss model); format: cell-based, Acanthamoeba castellanii; settings: APC12, APC14, APC16; 96 h at 25° C.
Description: Acanthamoeba trophozoites (10^5 cells/ml. n=5/treatment) treated with 100 μg/ml doubly diluted to 0.06 μg/ml of QAC12 (FIG. 7A), […], QAC16 (FIG. 7C) and QAC18 (FIG. 7D) with APC 12 (i), APCI 4 (ii) and APC16 (iii) for 96 h at 25° C. Cell viability estimated by the alamarBlue assay the dose-response curves used to produce a surface analysis (right panel) and the interaction profile determined using the Bliss model. The degree of interaction characterised by the QCScore heuristic score are produced as heat map (left panel). The colour of each cell in the heatmap and the surface analysis represents the assay response at that dose combination; red to orange, antagonistic: yellow to green, additive and blue, synergistic.
The change in potency between QAC and APC prompted us to used the checkerboard dilution method to identify synergistic interactions (FIG. 7A-D). Three interaction profiles, antagonistic (orange to red), additive (yellow to green) and synergistic (blue) were observed, with optimal synergistic interactions deemed to be significant occurring between 20-38%; (FIG. 7).

[9] = Table 4, read-out: IC50 against Acanthamoeba spp
[10] = Table 5, 72 h and 96 h at 26° C., alamar blue, read-out: IC50 Acanthamoeba trophozoites

## 10-Undecylenyl-1-phosphocholine [APC11UPC]
[1]
  Increase in activity relative to saturated counterpart APC12: 3 fold
[1]; Table 4
  IC50 against Acanthamoeba spp: 3.1 ± 0.4 µg/mL

## CCCCCCCCOP(=O)([O-])OCC[N+](C)(C)C [APC8, Octylphosphocholine]
[1]; [9]
  IC50: 46.4 ± 2.3 µg/mL (≈ 157 µM)

## CCCCCCCCCCOP(=O)([O-])OCC[N+](C)(C)C [APC10, Decylphosphocholine]
[1]; [9]
  IC50: 58 ± 0.9 µg/mL (≈ 179 µM)

## CC(C)CCC(CCC(C)C)OP(=O)([O-])OCC[N+](C)(C)C [APC11PC, 2,8-Dimethyl-5-Nonylphosphocholine]
[1]; [9]
  IC50: > 37.5 µg/mL

## CCCCCCCCCCCCOP(=O)([O-])OCC[N+](C)(C)C [APC12, Dodecylphosphocholine]
[1]; [10]
  IC50: 22.9 µg/mL and 65.2 µM
[2]
  CMC value: 1000.00* μM

## CCCCCCCCCCCCCCOP(=O)([O-])OCC[N+](C)(C)C [APC14, Tetradecylphosphocholine]
[1]; [9]
  IC50: 8.9 ± 0.2 µg/mL (≈ 23.5 µM)
[1]; [10]
  IC50: 8.9 µg/mL and 23.4 µM
[2]
  CMC value: 120.00* μM

## CCCCCCCCCCCCCCCCOP(=O)([O-])OCC[N+](C)(C)C [APC16, Hexadecylphosphocholine]
[1]; [9]
  IC50: 7.9 ± 0.3 µg/mL (≈ 19.4 µM)
[1]; [10]
  IC50: 7.9 µg/mL and 19.4 µM
[3]; 12.5 μg/ml to 100 μg/ml after 96 h
  Effect after APC16 wash-out and incubation in PG medium: amoebostatic
[4]
  Reduction in trophozoite size relative to untreated: 4 fold
[5]; APC16 at 3.12, 4.68, 6.25 and 9.36 μg/ml combined with QAC12, not alone
  Effect after drug wash-out (inability to oxidise resazurin): cytotoxic
[5]; QAC12 at 18.75 μg/ml, read-out: Estimated IC50 of APC16 with QAC12
  IC50: 3.4 µg/mL
[5]; QAC12 at 37.5 μg/ml, read-out: Estimated IC50 of APC16 with QAC12
  IC50: 2.5 µg/mL
[5]; without QAC12, read-out: IC50 of APC16 only control
  IC50: 7.6 µg/mL
[2]
  CMC value: 13.00* μM

## CCCCCCCCCCCCCCCCCCOP(=O)([O-])OCC[N+](C)(C)C [APC18, Octadecylphosphocholine]
[1]; [9]
  IC50: 3 ± 0.3 µg/mL (≈ 6.89 µM)

## CCCCCCCCCCCC[N+](C)(C)CCCCCCCCCCCC.[Br-] [DAB, Didodecyldimethyl ammonium bromide]
[1]; [9]
  IC50: 27 ± 2.2 µg/mL

## CCCCCCCCCCCCCC[N+](C)(C)C.[Br-] [QAC14, tetradecyltrimethyl ammonium bromide]
[1]; Table 2, read-out: IC50 A. castellanii trophozoites
  IC50: 9.07 µg/mL and 27 µM
[6]; Table 2, read-out: IC50 A. castellanii cysts
  IC50: 22.1 µg/mL and 65 µM
[6]; after 96 h, trypan blue viability assay, read-out: Estimated IC50 against matured cysts
  IC50: 15 µg/mL
[3]; 9.375 μg/ml, 1 h
  Back transformation to trophozoites after drug wash-out: +
[3]; 9.375 μg/ml, 24 h
  Back transformation to trophozoites after drug wash-out: +
[3]; 9.375 μg/ml, 48 h
  Back transformation to trophozoites after drug wash-out: +
[3]; 9.375 μg/ml, 72 h
  Back transformation to trophozoites after drug wash-out: +
[3]; 9.375 μg/ml, 96 h
  Back transformation to trophozoites after drug wash-out: +
[3]; 18.75 μg/ml, 1 h
  Back transformation to trophozoites after drug wash-out: +
[3]; 18.75 μg/ml, 24 h
  Back transformation to trophozoites after drug wash-out: +
[3]; 18.75 μg/ml, 48 h
  Back transformation to trophozoites after drug wash-out: +
[3]; 18.75 μg/ml, 72 h
  Back transformation to trophozoites after drug wash-out: +
[3]; 18.75 μg/ml, 96 h
  Back transformation to trophozoites after drug wash-out: +
[3]; 37.50 μg/ml, 1 h
  Back transformation to trophozoites after drug wash-out: +
[3]; 37.50 μg/ml, 24 h
  Back transformation to trophozoites after drug wash-out: −
[3]; 37.50 μg/ml, 48 h
  Back transformation to trophozoites after drug wash-out: −
[3]; 37.50 μg/ml, 72 h
  Back transformation to trophozoites after drug wash-out: −
[3]; 37.50 μg/ml, 96 h
  Back transformation to trophozoites after drug wash-out: −
[3]; after 24 h at 18.75 μg/ml
  Amoebotoxicity after wash-out and replacement with PG medium: amoebotoxic
[7]; 9.375 μg/ml, 24 h
  Back transformation to trophozoites after drug wash-out: +
[7]; 9.375 μg/ml, 48 h
  Back transformation to trophozoites after drug wash-out: +
[7]; 9.375 μg/ml, 72 h
  Back transformation to trophozoites after drug wash-out: +
[7]; 18.75 μg/ml, 24 h
  Back transformation to trophozoites after drug wash-out: +
[7]; 18.75 μg/ml, 48 h
  Back transformation to trophozoites after drug wash-out: +
[7]; 18.75 μg/ml, 72 h
  Back transformation to trophozoites after drug wash-out: +
[7]; 37.50 μg/ml, 24 h
  Back transformation to trophozoites after drug wash-out: +
[7]; 37.50 μg/ml, 48 h
  Back transformation to trophozoites after drug wash-out: +
[7]; 37.50 μg/ml, 72 h
  Back transformation to trophozoites after drug wash-out: +
[8]
  Interaction profile of QAC combined with APCs: less frequent and ‘noisy’
[2]; QACs
  CMC: 2.9 ± 0.1 µM

Reference: patent US20230102836A1, “Amoebicidal Compositions for Contact Lens Solutions” (University of the West of Scotland, priority 2019, published 2023)
